Like-named read-outs stand apart in the source and are kept apart here. One block for each compound: values may come before it.
Experiments:
[1] = Steady-state plasma PK of NE and EE, NE/EE given alone or with trametinib (phase 1 DDI study); settings: for AUC(0-t): AUClast; for AUC: AUCtau
clinical = settings: female, human, plasma, oral
CYP3A4 [2] = tested on: CYP3A4; set-up: method as in PMID 26347206, PMID 31445021; settings: in vitro; cited from earlier work
[3] = set-up: method as in Novartis, unpublished data; settings: ref Novartis, unpublished data; cited from earlier work
[4] = overall study, N = 19
CYP2D6 = tested on: CYP2D6; set-up: method as in PMID 26347206, PMID 31445021; settings: in vitro; cited from earlier work
UGT1A1 = tested on: UGT1A1; set-up: method as in PMID 26347206, PMID 31445021; settings: in vitro; cited from earlier work
CYP2B6 = tested on: CYP2B6; set-up: method as in PMID 26347206, PMID 31445021; settings: in vitro; cited from earlier work
CYP2A6 = tested on: CYP2A6; set-up: method as in PMID 26347206, PMID 31445021; settings: in vitro; cited from earlier work
[5] = cited from earlier work
CYP3A4 [6] = settings: in vitro, cited from earlier work
[7] = Steady-state plasma PK of trametinib and metabolite M5 when coadministered with NE/EE; settings: trametinib 2 mg daily + NE/EE, day 21, plasma
Experimental: Both regimens were continued until day 21 (Figure 1).
Extracts were analyzed using LC‐MS/MS.

CYP1A2 = tested on: CYP1A2; set-up: method as in PMID 26347206, PMID 31445021; settings: in vitro; cited from earlier work
phospho‐MEK1 = tested on: phospho‐MEK1; set-up: method as in PMID 23971497; settings: in vitro; read-out: half maximal inhibitory concentration to inhibit phospho‐MEK1; cited from earlier work
CYP3A4 [8] = tested on: CYP3A4; set-up: method as in PMID 24748562; settings: in vitro; read-out: EC50 for CYP3A4 mRNA induction; cited from earlier work
[9] = set-up: method as in PMID 23971497; settings: human plasma; cited from earlier work
[10] = basis for study design, no reference given; cited from earlier work
[11] = female, human, plasma, oral, adjusted geo‐mean, NE/EE + T, linear mixed-effects model
[12] = female, human, plasma, oral, adjusted geo‐mean, NE/EE alone, linear mixed-effects model
[13] = female, human, plasma, oral, geo‐mean (geo‐CV%), NE/EE alone, day 5, plasma
[14] = female, human, plasma, oral, mean (SD), NE/EE alone, day 5, plasma

- CL/F, geo‐mean (geo‐CV%) ([1]; NE/EE alone, day 5, plasma): 9.41 (76.9) L/h
- Ctrough, geo‐mean (geo‐CV%) ([1]; NE/EE alone, day 5, plasma): 1060 (165.5) pg/mL
- Ctrough, mean (SD) ([1]; NE/EE alone, day 5, plasma): 1940 (2850) pg/mL
- tmax, median (range) ([1]; NE/EE alone, day 5, plasma): 1.00 (0.50‐24) h
- AUC(0-t) [1, 11]: 127 ng·h/mL
- AUC(0-t) [1, 12]: 106 ng·h/mL
- AUC [1, 11]: 131 ng·h/mL
- AUC [1, 12]: 110 ng·h/mL
- Cmax [1, 11]: 17.1 ng/mL
- Cmax [1, 12]: 15.2 ng/mL
- half-life ([1]; female, human, plasma, oral, t½, median (range), NE/EE alone, day 5, plasma): 9.22 h
- Tmax (clinical): 1.02 h
- half-life (clinical): 9.06 h
SMILES: C#C[C@]1(O)CC[C@H]2[C@@H]3CCC4=CC(=O)CC[C@@H]4[C@H]3CC[C@@]21C [NE, norethindrone]

SMILES: CC(=O)Nc1cccc(-n2c(=O)n(C3CC3)c(=O)c3c(Nc4ccc(I)cc4F)n(C)c(=O)c(C)c32)c1 [trametinib, Trametinib]
- CYP3A4 inhibition (in words) (CYP3A4 [2]): no inhibitory activity
- findings in animal reproduction studies (in words) [3]: maternal and developmental toxicities
- AE of special interest: patients with bleeding events [4]: 15.8%
- AE of special interest: patients with cardiac‐related event [4]: 5.3%
- AE of special interest: patients with hepatic disorders [4]: 26.3%
- AE of special interest: patients with hypertension [4]: 15.8%
- AE of special interest: patients with skin toxicity [4]: 63.2%
- CYP2D6 inhibition (in words) (CYP2D6): no inhibitory activity
- UGT1A1 inhibition (in words) (UGT1A1): inhibitor
- CYP2B6 inhibition (in words) (CYP2B6): no inhibitory activity
- CYP2A6 inhibition (in words) (CYP2A6): no inhibitory activity
- peak:trough ratio ([5]; 2 mg once daily): 1.8
- time to reach Cmax (tmax) ([5]; 2 mg once daily): 1.5 h
- clinically relevant systemic exposure (concentration) ([5]; based on the Cmax of 22.2 ng/mL): ≈ 0.04 μM
- intrasubject variability [5]: more than 30%
- geo‐mean AUC0‐24 ([5]; trametinib 2 mg in the absence of COC): 370 ng·h/mL
- maximal effect of CYP3A4 induction, % of that of rifampicin (CYP3A4 [6]; hepatocytes, ref Novartis, unpublished data): 69%
- EC50 (CYP3A4 [6]; hepatocytes, ref Novartis, unpublished data, read-out: EC50 for CYP3A4 induction): 1.7 µM
- CYP3A4 induction (in words) (CYP3A4 [6]): low‐level inducer
- Cmax, geo‐mean (geo‐CV%) [7]: 27.4 (35.4) ng/mL
- CYP1A2 inhibition (in words) (CYP1A2): no inhibitory activity
- IC50 (phospho‐MEK1): 0.007 ± 0.0001 µM

SMILES: Cc1c(=O)n(C)c(Nc2ccc(I)cc2F)c2c(=O)n(C3CC3)c(=O)n(-c3cccc(N)c3)c12 [M5]
- share of drug‐related material in plasma [9]: < 11%
- IC50 (phospho‐MEK1): 0.009 ± 0.001 µM

- Ctrough, mean (SD) ([1]; NE/EE alone, day 5, plasma): 22.2 (12.6) pg/mL
- AUCtau, adjusted geo‐mean ([1]; NE/EE alone, linear mixed-effects model): 1.06 ng·h/mL
- AUC(0-t) [1, 11]: 1.07 ng·h/mL
- AUC(0-t) [1, 12]: 1.02 ng·h/mL
- AUC(0-t) [1, 13]: 0.983 ng·h/mL
- AUC(0-t) [1, 14]: 1.15 ng·h/mL
- AUC [1, 11]: 1.12 ng·h/mL
- AUC ([1]; female, human, plasma, oral, geo‐mean (geo‐CV%), NE/EE alone (1 mg NE/0.035 mg EE daily), day 5, plasma): 1.02 ng·h/mL
- AUC [1, 14]: 1.16 ng·h/mL
- Cmax [1, 11]: 0.128 ng/mL
- Cmax [1, 12]: 0.14 ng/mL
- Cmax [1, 13]: 0.135 ng/mL
- Cmax [1, 14]: 0.151 ng/mL
- Tmax ([1]; female, human, plasma, oral, tmax, median (range), NE/EE alone, day 5, plasma): 0.98 h
SMILES: C#C[C@]1(O)CC[C@H]2[C@@H]3CCc4cc(O)ccc4[C@H]3CC[C@@]21C [EE, ethinyl estradiol]
- mean t1/2 [10]: 20 h

From PMC9304124 (Clinical Pharmacology in Drug Development, 2022)
